Like-named read-outs stand apart in the source and are kept apart here.

In assay [1] the target is T1, EP1 receptors (PGE2-induced contractions of the ileum) (Cavia porcellus, UniProt A0A286XHJ6).
T1 construct: ileum was immersed in oxygenated Krebs solution containing indomethacin; from tissue; host or cells: guinea pig ileum
T1 sequence (A0A286XHJ6 1-405): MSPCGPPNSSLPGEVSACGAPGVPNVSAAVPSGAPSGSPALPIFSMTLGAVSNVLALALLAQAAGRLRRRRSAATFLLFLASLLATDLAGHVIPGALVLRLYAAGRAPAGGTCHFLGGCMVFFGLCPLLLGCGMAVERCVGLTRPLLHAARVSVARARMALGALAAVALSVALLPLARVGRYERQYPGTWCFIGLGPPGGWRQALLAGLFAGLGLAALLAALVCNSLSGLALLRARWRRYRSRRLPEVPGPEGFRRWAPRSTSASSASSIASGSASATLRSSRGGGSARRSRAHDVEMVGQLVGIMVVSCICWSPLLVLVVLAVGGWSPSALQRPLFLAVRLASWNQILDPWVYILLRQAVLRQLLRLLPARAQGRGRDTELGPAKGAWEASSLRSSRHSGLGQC
Put plainly: Test (a): in-vitro guinea pig ileum assay, inhibition of PGE2-induced contractions. The following applies: PGE2-induced contraction of guinea pig ileum, read-out: pA2 value (converted). The method, then: (a) an in-vitro guinea pig ileum assay which assesses the inhibitory properties of a test compound against PGE2 -induced contractions of the ileum; ileum was immersed in oxygenated Krebs solution containing indomethacin (4 μg/ml) and atropine (1 μM) and which was maintained at 37° C.; the ileum was subject to a resting tension of 1 g; a control dose response curve for PGE2 -induced contraction of the ileum was obtained; test compound (dissolved in dimethylsulphoxide) was added to the Krebs solution and a dose response curve for the PGE2 -induced contraction of the ileum in the presence of the test compound was obtained; the pA2 value for the test compound was calculated;
Prostanoid receptors and in particular receptors for PGE2 have been tentatively characterised by Kennedy et al. (Advances in Prostaglandin, Thromboxane and Leukotriene Research, 1983, 11, 327).

Assay [2] concerns writhing induced by the intraperitoneal administration of phenylbenzoquinone. The experiment in a line: Test (c): in-vivo assay in mice, writhing induced by phenylbenzoquinone (PBQ). The following applies: at 100 mg/kg, oral dosing. The source says: (c) an in-vivo assay in mice which assesses the inhibitory properties of a test compound against writhing induced by the intraperitoneal administration of phenylbenzoquinone (hereinafter PBQ) using the procedure disclosed in European Patent Application No. 0218077.
A general note: Writhing tests count abdominal constrictions after an irritant is injected.

The subject of assay [3] is writhing induced by the concomitant administration of PGE2 and bradykinin. Put plainly: Test (b): in-vivo assay in mice, writhing induced by PGE2 and bradykinin. The following applies: Mus musculus, oral dosing, read-out: ED50 for antagonism of the writhing response.
Assay [4] relates to PGE2 receptors. The conditions noted are these: cited from earlier work.

Turning to `O=C(O)c1cccc(CN2Cc3ccccc3Oc3ccc(Cl)cc32)c1` [Example 1, 3-(8-chloro-10,11-dihydrodibenzo[b,f]-[1,4]oxazepin-10-ylmethyl)benzoic acid], the Kb in assay [1] is 39.8 nM. Also, the “activity in Test (c)” value in assay [2] was “significant activity”.

As a reminder, the ED50 is the dose that gives a 50% effect, or the effect in half of the subjects. With `O=C(O)c1ccc(CN2Cc3ccccc3Oc3ccc(Cl)cc32)cc1` [Example 2, 4-(8-chloro-10,11-dihydrodibenzo[b,f][1,4]oxazepin-10-ylmethyl)-benzoic acid], the Kb in assay [1] was 100 nM. In addition, the ED50 in assay [3] came out at 19 mg/kg.

`CC(=O)NNC(=O)N1Cc2ccccc2Oc2ccc(Cl)cc21` [SC-19220]: the “block of the effect of PGE2” value was “not on other tissues” in assay [4] (cat trachea or chick ileum) and “blocks the effect of PGE2” in assay [4] (guinea pig ileum or dog fundus).

Values taken from patent US5189033A, “Tricyclic heterocycles” (Imperial Chemical Industries PLC, priority 1991, dated 1993).
